Experimental findings from ChEMBL document CHEMBL1130302, “1-Arylsulfonyl-3-(-hydroxybenzyl)-1H-pyrroles, a novel class of anti-HIV-1 reverse transcriptase inhibitors” (Bioorg Med Chem Lett, 1997) are described below.

As usually defined, the EC50 is the concentration at which the effect is half-maximal. The low end stands for a more potent agent, the high end for a less potent agent. For orientation: CC50 means the concentration at which the toxic effect on the cells reaches its halfway point. A high value points to better tolerance by the cells. One may read the IC50 as the concentration that inhibits the measured activity by half.

In experiment [1] the test system is Human immunodeficiency virus 1. The experiment in a line: Concentration required to achieve 50% protection of MT-4 cells against the cytopathic effect of HIV-1. It is filed as functional, organism-based. To be noted: Human immunodeficiency virus 1, MT4. (In general: Damage to the host cells serves as the signal in cytopathic effect assays.)
The next experiment deals with MT4. Nature of the experiment: Concentration required to reduce the viability of mock-infected MT-4 cells by 50%. It is filed as functional. The settings on record: Homo sapiens.
Experiment [2] can be described thus: Selectivity index reported as ratio of CC50 to EC50. It is filed as functional.
For experiment [3], the target named is Human immunodeficiency virus type 1 reverse transcriptase (Human immunodeficiency virus 1, UniProt Q72547). Nature of the experiment: Inhibition of HIV-1 recombinant reverse transcriptase.

SMILES strings stand for the structures. Some results are limits rather than exact numbers.

`Cc1ccc(C(O)c2ccn(S(=O)(=O)c3ccccc3)c2)cc1` (stereo not given): the EC50 in experiment [1] worked out at 15 µM. Further, in the experiment on MT4, half-maximal cytotoxicity (CC50) was put at 122 µM. Further, the Ratio in experiment [2] came out at 8.

For `O=S(=O)(c1ccccc1)n1ccc(C(c2ccccc2)n2ccnc2)c1` (stereo not given), the EC50 in experiment [1] is > 25 µM. Half-maximal cytotoxicity in the experiment with MT4 (CC50) was put at 25 µM.

Turning to `O=S(=O)(c1ccccc1)n1ccc(C(O)c2ccccc2Cl)c1` (stereo not given), the IC50 in experiment [3] came out at 29.5 µM. In experiment [1], the EC50 was found to be 4.1 µM. In the experiment with MT4, the CC50 stood at 113 µM. Moreover, in experiment [2], the Ratio came to 27.5.

`O=[N+]([O-])c1ccc(S(=O)(=O)n2ccc(C(O)c3ccc(Cl)cc3Cl)c2)cc1` (stereo not given) had an EC50 in experiment [1] of 22 µM. In the experiment with MT4, the CC50 was 50 µM. In addition, in experiment [2], the Ratio amounted to 2.2.

`O=S(=O)(c1ccccc1)n1ccc(C(O)c2ccc(Cl)cc2)c1` (stereo not given) showed an EC50 in experiment [1] of 9 µM. In addition, it took 66 µM to reach half-maximal cytotoxicity with MT4 (CC50). For the same compound, the Ratio in experiment [2] is 7.

Turning to `CCOP(=O)(OCC)OP(=O)(OCC)OCC` [ETHYL PYROPHOSPHATE], the concentration for a half-maximal effect (EC50) in experiment [1] was determined as 7 µM. Moreover, the CC50 with MT4 was determined as 740 µM. The Ratio in experiment [2] stood at 106.

For the compound `Cc1cn([C@H]2C[C@H](N=[N+]=[N-])[C@@H](CO)O2)c(=O)[nH]c1=O` [ZIDOVUDINE], the EC50 in experiment [1] worked out at 0.01 µM. Besides, the 50% cytotoxic concentration (CC50) in the experiment with MT4 was > 20 µM.

As for `Cc1ccc(C(c2ccn(S(=O)(=O)c3ccccc3)c2)n2ccnc2)cc1` (stereo not given), the EC50 in experiment [1] is > 26 µM. The compound further returned a CC50 in the experiment with MT4 of 26 µM.

Consider `Cc1ccc(C(=O)c2ccn(S(=O)(=O)c3ccccc3)c2)cc1`, for which the concentration for a half-maximal effect (EC50) in experiment [1] is > 30 µM. In the experiment on MT4, this compound had a CC50 of 30 µM.

Compound `O=S(=O)(c1ccccc1)n1ccc(C(O)c2c(F)cccc2F)c1` (stereo not given) showed a 50% effective concentration (EC50) in experiment [1] of 48 µM. The compound further displayed a CC50 in the experiment on MT4 of 100 µM. In addition, the Ratio in experiment [2] stood at 2.

Regarding `O=C(c1ccc(Cl)cc1)c1ccn(S(=O)(=O)c2ccccc2)c1`, the 50% effective concentration (EC50) in experiment [1] was > 26 µM. Further, the midpoint of cytotoxicity with MT4, the CC50, lay at 26 µM.

With `Cc1ccc(C(O)c2ccn(S(=O)(=O)c3ccc(C)cc3)c2)cc1` (stereo not given), the IC50 in experiment [3] worked out at 4.7 µM. The EC50 in experiment [1] is 7.3 µM. The compound also yielded a CC50 with MT4 of 96 µM. The Ratio in experiment [2] came to 13.

In the case of `CCOC(=O)c1cc(C(O)c2ccc(Cl)cc2Cl)cn1S(=O)(=O)c1cc(Cl)ccc1[N+](=O)[O-]` (stereo not given), the EC50 in experiment [1] was > 14 µM. Besides, the midpoint of cytotoxicity in the experiment with MT4, the CC50, lay at 14 µM.

For `O=S(=O)(c1ccc(Cl)cc1)n1ccc(C(O)c2ccc(Cl)cc2Cl)c1` (stereo not given), in experiment [3], the IC50 was determined as 17 µM. The compound further returned an EC50 in experiment [1] of 4.4 µM. The compound further came in with a CC50 with MT4 of 96 µM. Also, the Ratio in experiment [2] is 21.8.

Take `COc1ccc(C(O)c2ccn(S(=O)(=O)c3ccc(C)cc3)c2)cc1` (stereo not given): the EC50 in experiment [1] was 15.7 µM. In the experiment on MT4, the CC50 was > 200 µM. Besides, the Ratio in experiment [2] is > 12.

For the compound `O=S(=O)(c1ccccc1)n1ccc(C(O)c2ccc(Cl)cc2Cl)c1` (stereo not given), in experiment [3], the IC50 was > 30 µM. For the same compound, a half-maximal effect in experiment [1] (EC50) was put at 5 µM. In the experiment on MT4, the CC50 turned out to be 57 µM. For the same compound, in experiment [2], the Ratio turned out to be 11.

On to `CC(O)c1ccn(S(=O)(=O)c2cc(Cl)ccc2N)c1` (stereo not given), for which the EC50 in experiment [1] was > 95 µM. This compound also had a CC50 in the experiment on MT4 of 95 µM.

`CCOC(=O)c1cc(C(O)c2ccc(Cl)cc2Cl)cn1S(=O)(=O)c1ccc(C)cc1` (stereo not given) displayed an EC50 in experiment [1] of 14 µM. In the experiment on MT4, half-maximal cytotoxicity (CC50) was put at 36 µM. Moreover, the Ratio in experiment [2] was 2.6.

Take `Cc1ccc(S(=O)(=O)n2ccc(C(O)c3ccc(Cl)cc3Cl)c2)cc1` (stereo not given): the IC50 in experiment [3] amounted to 18 µM. This compound also came in with an EC50 in experiment [1] of 0.3 µM. Moreover, the CC50 with MT4 turned out to be 61 µM. In experiment [2], the Ratio stood at 203.

Take `CC(C)c1ccc(S(=O)(=O)n2ccc(C(O)c3ccc(Cl)cc3Cl)c2)cc1` (stereo not given): the IC50 in experiment [3] came out at 2.5 µM. The EC50 in experiment [1] stood at 1.8 µM. The same compound yielded a CC50 in the experiment with MT4 of 51 µM. The Ratio in experiment [2] was determined as 28.

For `O=S(=O)(c1ccccc1)n1ccc(C(c2ccc(Cl)cc2Cl)n2ccnc2)c1` (stereo not given), the EC50 in experiment [1] is > 14 µM. This compound showed a 50% cytotoxic concentration (CC50) with MT4 of 14 µM.

For `CCOC(=O)c1cc(C(O)c2ccc(Cl)cc2Cl)cn1S(=O)(=O)c1cc(Cl)ccc1N` (stereo not given), the midpoint of the response in experiment [1], the EC50, lay at 16 µM. Also, the half-maximal cytotoxic concentration (CC50) in the experiment on MT4 is 29 µM. Further, the Ratio in experiment [2] was determined as 1.8.

Take `Nc1ccc(S(=O)(=O)n2ccc(C(O)c3ccc(Cl)cc3Cl)c2)cc1` (stereo not given): the EC50 in experiment [1] amounted to 11 µM. The same compound gave a CC50 with MT4 of 74 µM. In experiment [2], the Ratio was 6.7.

As for `Cc1ccnc2c1NC(=O)c1cccnc1N2C1CC1` [NEVIRAPINE], the CC50 in the experiment on MT4 is > 200 µM.

The compound `Cc1ccc(S(=O)(=O)n2cc(C(O)c3ccc(Cl)cc3Cl)cc2C(=O)OC(C)C)cc1` (stereo not given) registered an EC50 in experiment [1] of 22 µM. In the experiment with MT4, the CC50 stood at 32 µM. The Ratio in experiment [2] came out at 1.4.

On to `O=S(=O)(c1ccccc1)n1ccc(C(O)c2ccccc2)c1` (stereo not given), for which a half-maximal response in experiment [1] (EC50) required 8 µM. The midpoint of cytotoxicity with MT4, the CC50, lay at 124 µM. Besides, the Ratio in experiment [2] came to 15.

With `O=S(=O)(c1ccccc1)n1ccc(C(O)c2ccccc2F)c1` (stereo not given), the EC50 in experiment [1] turned out to be 9.1 µM. Besides, the CC50 with MT4 is > 200 µM. Moreover, the Ratio in experiment [2] was > 22.

Regarding `Nc1ccc(Cl)cc1S(=O)(=O)n1ccc(C(O)c2ccccc2)c1` (stereo not given), the IC50 in experiment [3] was > 30 µM. Further, the EC50 in experiment [1] came out at 3.2 µM. The CC50 in the experiment with MT4 was 109 µM. For the same compound, in experiment [2], the Ratio came out at 34.

With `COC(c1ccn(S(=O)(=O)c2ccc(C)cc2)c1)c1ccc(Cl)cc1Cl` (stereo not given), the EC50 in experiment [1] is > 82 µM. The CC50 in the experiment with MT4 was 82 µM.

For the compound `O=C(c1ccn(S(=O)(=O)c2ccccc2)c1)c1ccc(Cl)cc1Cl`, the EC50 in experiment [1] was > 30 µM. In the experiment on MT4, this compound had a CC50 of 30 µM.

On to `Cc1ccc(S(=O)(=O)n2ccc(C(O)c3ccc(Cl)cc3Cl)c2)c(C)c1` (stereo not given), for which, in experiment [3], the IC50 was < 1.1 µM. In addition, in experiment [1], the response was half-maximal at 0.3 µM (EC50). The midpoint of cytotoxicity with MT4, the CC50, lay at 60 µM. In addition, the Ratio in experiment [2] amounted to 200.

On to `CC(C)OC(=O)c1cc(C(O)c2ccc(Cl)cc2Cl)cn1S(=O)(=O)c1ccc(Cl)cc1` (stereo not given), for which the EC50 in experiment [1] is > 28 µM. It took 28 µM to reach half-maximal cytotoxicity in the experiment on MT4 (CC50).

Take `Cc1ccccc1S(=O)(=O)n1ccc(C(O)c2ccc(Cl)cc2Cl)c1` (stereo not given): in experiment [3], the IC50 came to 27 µM. The compound also gave an EC50 in experiment [1] of 1.7 µM. Moreover, the half-maximal cytotoxic concentration (CC50) in the experiment on MT4 is > 200 µM. Also, the Ratio in experiment [2] was > 117.

As for `O=S(=O)(c1ccccc1)n1ccc(C(c2ccc(Cl)cc2)n2ccnc2)c1` (stereo not given), the EC50 in experiment [1] was > 22 µM. Besides, in the experiment with MT4, half-maximal cytotoxicity (CC50) was put at 22 µM.

Consider `CCc1ccc(S(=O)(=O)n2ccc(C(O)c3ccc(Cl)cc3Cl)c2)cc1` (stereo not given), for which the IC50 in experiment [3] worked out at 22 µM. The same compound showed a concentration for a half-maximal effect (EC50) in experiment [1] of 1.5 µM. This compound also came in with a 50% cytotoxic concentration (CC50) in the experiment on MT4 of 71 µM. For the same compound, the Ratio in experiment [2] is 47.

In the case of `O=C(c1ccccc1)c1ccn(S(=O)(=O)c2ccccc2)c1`, the EC50 in experiment [1] was > 32 µM. In the experiment on MT4, this compound yielded a CC50 of 32 µM.

In experiment [1], `CC(=O)OC(c1ccn(S(=O)(=O)c2ccc(C)cc2)c1)c1ccc(Cl)cc1Cl` (stereo not given) displayed an EC50 of 9.8 µM. This compound came in with a CC50 in the experiment with MT4 of 100 µM. In addition, the Ratio in experiment [2] was 10.

`CC(C)(C)c1ccc(S(=O)(=O)n2ccc(C(O)c3ccc(Cl)cc3Cl)c2)cc1` (stereo not given): in experiment [3], the IC50 was determined as 6.4 µM. The compound also had an EC50 in experiment [1] of 2.5 µM. In the experiment on MT4, this compound gave a CC50 of 62 µM. In addition, the SI in experiment [2] stood at 24.
